“Also recorded” adds a separate entry of the source. Each block holds one molecule with its values, some of them ahead of it.
What was measured:
Assay type in all cases: physicochemical
[1] = Dynamic vapor sorption (DVS) isotherm, hygroscopicity; settings: for water uptake, adsorption isotherm / water uptake, desorption isotherm: 80% relative humidity, 25° C.; for Hygroscopicity/purity decrease: MC3 and MC3 trimesate, water uptake up to 80% RH at 25° C.; for Hygroscopicity / form change after DVS: salts or cocrystals of Compound 1; for Hygroscopicity: DVS isotherm at 25° C.; for form change after DVS: XRPD before and after DVS test at 25° C.
Method: DVS was measured on via a SMS (Surface Measurement Systems) DVS Intrinsic. The relative humidity at 25° C. were calibrated against deliquescence point of LiCl, Mg(NO3)2 and KCl.

free base pKa = assay: free base pKa
[2] = HPLC purity before and after the DVS experiment; settings: samples prepared with crude and purified free base
Method: Trimesate Type A samples were prepared according to the procedure described in the foregoing, using the crude free base (HPLC purity of 88.5 area %) or purified free base (HPLC purity of 97.6 area %) as starting material, and analyzed by HPLC.

[3] = listed as 4-hydroxybenzoate Polymorph A
[4] = listed as trimellitate Polymorph A

water uptake, adsorption isotherm ([1]; listed as crude free base): 0.24% | water uptake, adsorption isotherm ([1]; listed as pure free base): 0.14% | water uptake, desorption isotherm ([1]; listed as crude free base): 0.27% | water uptake, desorption isotherm ([1]; listed as pure free base): 0.17% | Hygroscopicity/purity decrease ([1]; listed as crude free base): slightly hygroscopic | pKa (free base pKa): > 8
Molecule: CCCCC/C=C\C/C=C\CCCCCCCCC(CCCCCCCC/C=C\C/C=C\CCCCC)OC(=O)CCCN(C)C [MC3, (6Z,9Z,28Z,31Z)-heptatriaconta-6,9,28,31-tetraen-19-yl 4-(dimethylamino)butanoate, reference compound]

Molecule: (6Z,9Z,28Z,31Z)-heptatriaconta-6,9,28,31-tetraen-19-yl 4-(dimethylamino)butanoate trimesate [Trimesate Type A]
Hygroscopicity/purity decrease [1]: Non-hygroscopic | Hygroscopicity/purity decrease ([1]; listed as trimesate Type A): non-hygroscopic (Hygroscopicity concluded using the water uptake up to 80% RH at 25° C.: < 0.2% for non-hygroscopic) | Hygroscopicity/purity decrease ([1]; listed as trimesate of MC3): non-hygroscopic (Hygroscopicity concluded using the water uptake up to 80% RH at 25° C.: < 0.2% for non-hygroscopic) | HPLC purity change after the DVS experiment [2]: No significant HPLC purity change

Molecule: heptadecan-9-yl 8-((2-hydroxyethyl)amino)octanoate 4-hydroxybenzoate [4-Hydroxybenzoate Polymorph A]
Hygroscopicity [1]: Non-hygroscopic | Hygroscopicity [1, 3]: non-hygroscopic | Hygroscopicity ([1]; listed as 4-hydroxybenzoate of Compound 1): non-hygroscopic | Hygroscopicity ([1]; listed as Polymorph A of 4-hydroxybenzoate of Compound 1): low hygroscopicity | form change after DVS [1]: (no) | form change after DVS [1, 3]: no form change

Molecule: heptadecan-9-yl 8-((2-hydroxyethyl)amino)octanoate orotate [Orotate Polymorph B]
Hygroscopicity [1]: slightly hygroscopic; also recorded: Hygroscopic

Molecule: heptadecan-9-yl 8-((2-hydroxyethyl)amino)octanoate trimellitate [Trimellitate Polymorph A]
Hygroscopicity [1]: Slightly hygroscopic | Hygroscopicity [1, 4]: slightly hygroscopic | form change after DVS [1]: (no) | form change after DVS [1, 4]: no form change

Source: US12552738B2, “Crystal forms of amino lipids” (ModernaTX, Inc., priority 2017, dated 2026)
